Article PMC10067601, “Identification of a peptide ligand for human ALDH3A1 through peptide phage display: Prediction and characterization of protein interaction sites and inhibition of ALDH3A1 enzymatic activity” (Frontiers in Molecular Biosciences, 2023)

Target: T1, human recombinant ALDH3A1 (Homo sapiens, UniProt P30838)
T1 construct: 6xHis (C); made in house; host or cells: E. coli, with chaperone co-expression (pG-KJE8 plasmid)
T1 sequence (P30838 1-453): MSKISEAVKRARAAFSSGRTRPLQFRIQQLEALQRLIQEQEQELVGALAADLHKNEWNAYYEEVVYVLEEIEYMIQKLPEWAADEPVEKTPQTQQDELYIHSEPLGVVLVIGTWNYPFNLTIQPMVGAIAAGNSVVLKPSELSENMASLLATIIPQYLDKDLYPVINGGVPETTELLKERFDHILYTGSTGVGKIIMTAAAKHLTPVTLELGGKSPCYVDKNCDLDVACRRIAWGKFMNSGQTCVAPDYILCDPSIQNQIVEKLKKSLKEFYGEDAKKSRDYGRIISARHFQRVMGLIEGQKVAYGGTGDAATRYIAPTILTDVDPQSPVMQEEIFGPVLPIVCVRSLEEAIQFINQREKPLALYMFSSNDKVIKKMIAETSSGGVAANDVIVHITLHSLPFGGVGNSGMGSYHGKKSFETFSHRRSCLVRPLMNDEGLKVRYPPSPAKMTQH
Assay: ALDH3A1 enzymatic assay, benzaldehyde oxidation
Format: biochemical
Conditions: for Enzymatic activity, % of control (Mean%): 40 μM CB29; for Enzymatic activity, % of control (Mean%) / Enzymatic Activity, AVERAGE of triplicates: mean of n = 3
Protocol: The ability of ALDH3A1 to oxidize benzaldehyde in the presence of P1 was estimated by monitoring the production of NADH as described earlier with minor modifications ([Voulgaridou et al., 2013]). Human recombinant ALDH3A1 was combined with P1 and diluted in Milli-Q water, at 1:1,000. The final reaction was placed in a 0.5 mL quartz cuvette containing 50 mM Tris-HCl pH 8.5, 50 mM 2-Mercaptoethanol, 1.5 mM […], 20 nM ALDH3A1, 20 μM P1, and 1 mM Benzaldehyde. The reaction was initiated by the addition of the benzaldehyde substrate and was monitored at 340 nm for 5 min using a spectrophotometer (Libra S22, Biochrom Ltd, Cambridge, United Kingdom). In the case of CB29, the final reaction contained 40 μM CB29. Enzymatic activity was calculated as dOD/dT∗molarextinctioncoeiffcient∗pathcorrection∗enzyme^′sconcentrationinfinalreaction where, dT = minutes, molar extinction coefficient = 6220 M^-1/cm, path correction = 1 cm.
All experiments were conducted in triplicates and presented as % of the control’s enzymatic activity. As a control, the final reaction contained the respective Milli-Q water volume without P1 or CB29.
At least three independent experiments were performed for each condition tested. The values are expressed as the mean ± standard deviation (SD). Statistical analysis was performed with Graph Pad Prism software (version 9.4.1) (Graph Pad Inc., La Jolla, CA, United States). For all assays, statistical differences between groups were evaluated either by Student’s t-test or ANOVA, for multiple comparisons, followed by Dunnett’s or Tukey’s test. A level of p < 0.01 was considered statistically significant.

[1] = 20 μM P1 (n = 4) or 40 μM CB29 (n = 3)

## CC(=O)Nc1ccc(Nc2ccc(S(C)(=O)=O)cc2[N+](=O)[O-])cc1 [CB29, reference compound]
20 μM P1 (4 experiments) or 40 μM CB29 (3 experiments), 1 mM benzaldehyde, 20 nM ALDH3A1, pH 8.5, 340 nm, 5 min
  Enzymatic activity, % of control, AVERAGE of experiments: 52.9548%
[1]
  25% Percentile, % of control activity: 47.24
  75% Percentile, % of control activity: 56.68
  Lower 95% CI of mean, % of control activity: 40.48
  Maximum, % of control activity: 56.68
  Mean, % of control activity: 52.95
  Median, % of control activity: 54.95
  Minimum, % of control activity: 47.24
  Upper 95% CI of mean, % of control activity: 65.43
CB29 Exp1, 1 mM benzaldehyde, 20 nM ALDH3A1, pH 8.5, 340 nm
  Enzymatic activity, % of control (Mean%): 56.6779%
CB29 Exp2, 1 mM benzaldehyde, 20 nM ALDH3A1, pH 8.5, 340 nm
  Enzymatic activity, % of control (Mean%): 54.9455%
CB29 Exp3, 1 mM benzaldehyde, 20 nM ALDH3A1, pH 8.5, 340 nm
  Enzymatic activity, % of control (Mean%): 47.241%
CB29 Exp1, 40 μM
  Enzymatic Activity, AVERAGE of triplicates: 7.722 µmol/min/mg
CB29 Exp2, 40 μM
  Enzymatic Activity, AVERAGE of triplicates: 6.9085 µmol/min/mg
CB29 Exp3, 40 μM
  Enzymatic Activity, AVERAGE of triplicates: 7.406 µmol/min/mg
Dunnett's multiple comparisons, 20 μM P1 or 40 μM CB29
  95,00% CI of diff, control vs. compound: 37,23 to 56,86
Dunnett's multiple comparisons, 20 μM P1 or 40 μM CB29, % of control activity
  Mean Diff, control vs. compound: 47.05
